{"source": "patent US12319672B2", "about": "“Alpha-D-galactopyranoside derivatives” (Idorsia Pharmaceuticals Ltd, priority 2019, dated 2025)", "key": {"[1]": {"biological_target": "human Gal-1 (hGal-1)", "sequence (P09382 2-135 limits assumed)": "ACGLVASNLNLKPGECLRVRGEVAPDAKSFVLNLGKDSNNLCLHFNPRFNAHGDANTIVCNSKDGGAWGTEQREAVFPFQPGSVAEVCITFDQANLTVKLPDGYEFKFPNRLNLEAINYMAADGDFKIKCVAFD", "assay": "Competitive binding assay: binding of biotinylated hGal-1 to microplate-adsorbed asialofetuin (ASF)", "details": "Activities on hGal-1; mean values of several measurements", "how_it_was_run": "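For hGal-1, a variant with all six cysteines replaced by serines is preferred. Either galectin, biotinylated at 300-1000 ng/mL, competes with compound for microplate-bound ASF over 3 h at 4° C; peroxidase/ABTS detection gives IC50, averaged.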"}, "[2]": {"biological_target": "human Gal-3 (hGal-3) (Homo sapiens (Human), UniProt P17931)", "sequence (P17931 whole entry)": "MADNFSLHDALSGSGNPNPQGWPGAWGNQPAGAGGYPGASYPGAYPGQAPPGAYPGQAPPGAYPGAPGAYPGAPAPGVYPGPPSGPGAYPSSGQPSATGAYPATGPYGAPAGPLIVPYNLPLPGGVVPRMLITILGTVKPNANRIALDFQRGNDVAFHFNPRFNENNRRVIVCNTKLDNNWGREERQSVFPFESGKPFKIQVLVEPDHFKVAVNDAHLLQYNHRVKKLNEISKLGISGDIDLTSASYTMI", "assay": "Competitive binding assay: binding of biotinylated hGal-3 to microplate-adsorbed asialofetuin (ASF)", "details": "Activity on hGal-3; mean values of several measurements", "how_it_was_run": "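Spectrophotometric readout (streptavidin-peroxidase, ABTS) of biotinylated galectin retained on ASF-coated wells. Biotinylated hGal-1 or hGal-3, 300-1000 ng/mL, co-incubated with test compound 3 h at 4° C, then washed. Mean IC50 from repeat runs.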"}}, "data": [{"smiles": "CO[C@@H]1[C@@H](n2cc(-c3cc(F)c(F)c(F)c3)nn2)[C@@H](O)[C@@H](CO)O[C@@H]1Cc1cc(C(C)(C)C)on1", "note": "[Ex 1.63]", "values": [{"measurement": "IC50", "setting": "[1]", "value": 2540, "unit": "nM"}, {"measurement": "IC50", "setting": "[2]", "value": 340, "unit": "nM"}]}, {"smiles": "CO[C@@H]1[C@@H](n2cc(-c3cc(F)c(F)c(F)c3)nn2)[C@@H](O)[C@@H](CO)O[C@@H]1Cc1cc(C2CNC(=O)C2)no1", "note": "(stereo partly drawn) [Ex 1.94]", "values": [{"measurement": "IC50", "setting": "[1]", "value": 4760, "unit": "nM"}, {"measurement": "IC50", "setting": "[2]", "value": 140, "unit": "nM"}]}, {"smiles": "CO[C@@H]1[C@@H](n2cc(-c3ccc(F)c(F)c3F)nn2)[C@@H](O)[C@@H](CO)O[C@@H]1Cc1cc(C2(O)CCCC2)on1", "note": "[Ex 1.234]", "values": [{"measurement": "IC50", "setting": "[1]", "value": 1270, "unit": "nM"}, {"measurement": "IC50", "setting": "[2]", "value": 57, "unit": "nM"}]}, {"smiles": "CO[C@@H]1[C@@H](n2cc(-c3ccc(C)c(F)c3F)nn2)[C@@H](O)[C@@H](CO)O[C@@H]1Cc1cc(C2(C#N)CCCC2)no1", "note": "[Ex 1.292]", "values": [{"measurement": "IC50", "setting": "[1]", "value": 3540, "unit": "nM"}, {"measurement": "IC50", "setting": "[2]", "value": 51, "unit": "nM"}]}, {"smiles": "O=C(O)[C@H]1CC[C@](O)(c2cc(C[C@H]3O[C@H](CO)[C@H](O)[C@H](n4cc(-c5cc(F)c(F)c(F)c5)nn4)[C@H]3O)no2)CC1", "note": "[Example 2.11, (1S,4s)-4-(3-(((2R,3R,4R,5R,6R)-3,5-dihydroxy-6-(hydroxymethyl)-4-(4-(3,4,5-trifluorophenyl)-1H-1,2,3-triazol-1-yl)tetrahydro-2H-pyran-2-yl)methyl)isoxazol-5-yl)-4-hydroxycyclohexane-1-carboxylic acid]", "values": [{"measurement": "IC50", "setting": "[1]", "value": 13700, "unit": "nM"}, {"measurement": "IC50", "setting": "[2]", "value": 2540, "unit": "nM"}]}, {"smiles": "CO[C@@H]1[C@@H](n2cc(-c3cc(F)c(F)c(F)c3)nn2)[C@@H](O)[C@@H](CO)O[C@@H]1Cc1cc(C2CCN(C)C(=O)C2)no1", "note": "(stereo partly drawn) [Ex 1.90]", "values": [{"measurement": "IC50", "setting": "[1]", "value": 1780, "unit": "nM"}, {"measurement": "IC50", "setting": "[2]", "value": 260, "unit": "nM"}]}, {"smiles": "CO[C@@H]1[C@@H](n2cc(-c3cc(F)c(F)c(F)c3)nn2)[C@@H](O)[C@@H](CO)O[C@@H]1CC1CC(C2CCN(C(=O)OC(C)(C)C)CC2)=NO1", "note": "(stereo partly drawn) [Ex 1.46]", "values": [{"measurement": "IC50", "setting": "[1]", "value": 1000, "unit": "nM"}, {"measurement": "IC50", "setting": "[2]", "value": 290, "unit": "nM"}]}, {"smiles": "CCC(=O)O[C@@H]1[C@@H](n2cc(-c3cc(F)c(F)c(F)c3)nn2)[C@@H](O)[C@@H](CO)O[C@@H]1Cc1cc(C2CCNCC2)on1", "note": "[Example 2.18, (2R,3R,4S,5R,6R)-5-hydroxy-6-(hydroxymethyl)-2-((5-(piperidin-4-yl)isoxazol-3-yl)methyl)-4-(4-(3,4,5-trifluorophenyl)-1H-1,2,3-triazol-1-yl)tetrahydro-2H-pyran-3-yl propionate]", "values": [{"measurement": "IC50", "setting": "[1]", "value": 6300, "unit": "nM"}, {"measurement": "IC50", "setting": "[2]", "value": 220, "unit": "nM"}]}, {"smiles": "CO[C@@H]1[C@@H](n2cc(-c3cc(F)c(F)c(F)c3)nn2)[C@@H](O)[C@@H](CO)O[C@@H]1Cn1cc(-c2cccc(F)c2)nn1", "note": "[Example 4.01, (2R,3R,4S,5R,6R)-6-((4-(3-fluorophenyl)-1H-1,2,3-triazol-1-yl)methyl)-2-(hydroxymethyl)-5-methoxy-4-(4-(3,4,5-trifluorophenyl)-1H-1,2,3-triazol-1-yl)tetrahydro-2H-pyran-3-ol]", "values": [{"measurement": "IC50", "setting": "[1]", "value": 13500, "unit": "nM"}, {"measurement": "IC50", "setting": "[2]", "value": 1240, "unit": "nM"}]}, {"smiles": "CO[C@@H]1[C@@H](n2cc(-c3cc(F)c(F)c(F)c3)nn2)[C@@H](O)[C@@H](CO)O[C@@H]1CC1CN(C2CCN(S(=O)(=O)C(C)(C)C)CC2)C(=O)O1", "note": "(mixture of isomers) [Example 5.22, (RS)-3-(1-(tert-butylsulfonyl)piperidin-4-yl)-5-(((2R,3R,4S,5R,6R)-5-hydroxy-6-(hydroxymethyl)-3-methoxy-4-(4-(3,4,5-trifluorophenyl)-1H-1,2,3-triazol-1-yl)tetrahydro-2H-pyran-2-yl)methyl)oxazolidin-2-one]", "values": [{"measurement": "IC50", "setting": "[1]", "value": 760, "unit": "nM"}, {"measurement": "IC50", "setting": "[2]", "value": 67, "unit": "nM"}]}, {"smiles": "CC(C)(C)c1cc(C[C@H]2O[C@H](CO)[C@H](O)[C@H](n3cc(-c4cc(F)c(F)c(F)c4)nn3)[C@H]2OCC(=O)N2CCOCC2)no1", "note": "[Example 2.28, 2-(((2R,3R,4S,5R,6R)-2-((5-(tert-butyl)isoxazol-3-yl)methyl)-5-hydroxy-6-(hydroxymethyl)-4-(4-(3,4,5-trifluorophenyl)-1H-1,2,3-triazol-1-yl)tetrahydro-2H-pyran-3-yl)oxy)-1-morpholinoethan-1-one]", "values": [{"measurement": "IC50", "setting": "[1]", "value": 2180, "unit": "nM"}, {"measurement": "IC50", "setting": "[2]", "value": 110, "unit": "nM"}]}, {"smiles": "CO[C@@H]1[C@@H](n2cc(-c3ccc(Cl)c(F)c3F)nn2)[C@@H](O)[C@@H](CO)O[C@@H]1Cc1cc(C2(C)CCCC2)no1", "note": "[Ex 1.289]", "values": [{"measurement": "IC50", "setting": "[1]", "value": 1770, "unit": "nM"}, {"measurement": "IC50", "setting": "[2]", "value": 59, "unit": "nM"}]}]}
